Results: patent US8058475B2, “Substituted cyclohexylmethyl compounds” (Gruenenthal GmbH, priority 2005, dated 2011)
Where a name gives a salt, the structure may show the parent alone. Read-outs that look alike come from different tables or passages of the source.

Tests used:
[1] = test system: mouse; assay: In vivo studies of analgesia: tail-flick test in the mouse; conditions: iv; for % maximum possible antinociceptive effect at 10 mg/kg: dose 10 mg/kg (i.v.)
Excerpt: In vivo Studies of Analgesia: Tail-flick Test in the Mouse
The mice were each placed individually into a test cage and the base of the tail was exposed to the focused heat ray of an electric lamp (tail-flick type 50/08/1.bc, Labtec, Dr. Hess). The intensity of the lamp was adjusted so that the time from switching on of the lamp to the sudden twitching away of the tail (latency of pain) in untreated mice was from 3 to 5 seconds. Before administration of the solutions comprising the compound according to the invention, or of the particular comparison solutions, the mice were pre-tested twice in the course of five minutes and the mean of these measurements was calculated as the pre-test mean.
The solutions of the compound of the general formula I according to the invention and the comparison solutions were then administered intravenously.
Pain measurement was carried out in each case 10, 20, 40 and 60 minutes following the intravenous administration. The analgesic activity was determined as the increase in the latency of pain (% of the maximum possible antinociceptive effect) according to the following formula: [(T1−T0)/(T2−T0)]×100 where time T0 is the latency before administration, time T1 is the latency after administration of the active ingredient combination and time T2 is the maximum exposure time (12 seconds).
The in-depth study of analgesic activity was carried out in the tail-flick test in the mouse, as described above.

[2] = biological target: human μ-opiate receptor (Homo sapiens, UniProt P35372); assay: Affinity for the human μ-opiate receptor ([3H]-naloxone displacement, SPA, CHO-K1 membrane preparation); type: binding; conditions: for inhibition at 1 µM: read-out: μ-Opioid receptor, % inhibition [1 μM]; for Ki: read-out: μ-Opioid receptor, Ki
Sequence of human μ-opiate receptor (P35372 whole entry): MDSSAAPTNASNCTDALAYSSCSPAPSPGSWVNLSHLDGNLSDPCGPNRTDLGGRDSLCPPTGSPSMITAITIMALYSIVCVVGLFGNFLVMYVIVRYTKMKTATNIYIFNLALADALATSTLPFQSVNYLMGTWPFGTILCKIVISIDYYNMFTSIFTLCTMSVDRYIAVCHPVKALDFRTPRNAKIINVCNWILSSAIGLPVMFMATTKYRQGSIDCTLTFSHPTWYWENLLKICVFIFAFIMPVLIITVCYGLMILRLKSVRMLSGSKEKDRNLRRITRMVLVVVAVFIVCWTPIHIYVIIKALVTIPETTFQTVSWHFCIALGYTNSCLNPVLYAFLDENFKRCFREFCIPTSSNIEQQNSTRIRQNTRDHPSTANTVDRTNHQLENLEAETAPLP

[3] = biological target: T1, Serotonin (5HT) reuptake (Rattus norvegicus, UniProt P31652); assay: Serotonin (5HT) reuptake inhibition in rat brain synaptosomes (P2 fraction); type: biochemical; conditions: for inhibition at 10 µM: read-out: Serotonin reuptake, % inhibition [10 μM]
T1 construct: synaptosomes are freshly isolated from areas of rat brain; from tissue; host or cells: rat brain synaptosomes (P2 fraction)
T1 sequence (P31652 whole entry): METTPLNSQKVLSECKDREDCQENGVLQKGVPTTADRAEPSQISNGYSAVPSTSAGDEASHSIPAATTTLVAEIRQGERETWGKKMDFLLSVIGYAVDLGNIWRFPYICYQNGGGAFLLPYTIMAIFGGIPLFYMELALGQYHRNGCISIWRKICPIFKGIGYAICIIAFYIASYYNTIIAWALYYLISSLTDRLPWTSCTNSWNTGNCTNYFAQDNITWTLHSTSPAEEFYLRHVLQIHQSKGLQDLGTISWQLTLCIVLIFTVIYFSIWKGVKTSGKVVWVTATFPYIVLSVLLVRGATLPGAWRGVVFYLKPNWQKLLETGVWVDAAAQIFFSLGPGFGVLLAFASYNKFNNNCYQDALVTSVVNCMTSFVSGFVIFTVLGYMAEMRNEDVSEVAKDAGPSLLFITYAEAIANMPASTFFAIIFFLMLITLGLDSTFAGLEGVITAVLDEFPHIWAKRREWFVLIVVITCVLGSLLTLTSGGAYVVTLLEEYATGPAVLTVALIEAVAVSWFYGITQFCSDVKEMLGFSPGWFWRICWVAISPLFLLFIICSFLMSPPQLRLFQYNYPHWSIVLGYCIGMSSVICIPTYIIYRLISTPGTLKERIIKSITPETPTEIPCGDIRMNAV
Method in brief: (§1)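 Freshly isolated rat brain synaptosomes (P2 fraction, Gray–Whittaker method) used for uptake; for NA uptake the particles came from hypothalamus of male rats.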

[4] = biological target: T2, Noradrenaline (NA) reuptake (Rattus norvegicus, UniProt Q63380); assay: Noradrenaline (NA) reuptake inhibition in rat brain synaptosomes (hypothalamus, P2 fraction); type: biochemical
T2 construct: synaptosomes are freshly isolated from areas of rat brain; from tissue; host or cells: rat hypothalamus synaptosomes (P2 fraction)
T2 sequence (Q63380 1-617): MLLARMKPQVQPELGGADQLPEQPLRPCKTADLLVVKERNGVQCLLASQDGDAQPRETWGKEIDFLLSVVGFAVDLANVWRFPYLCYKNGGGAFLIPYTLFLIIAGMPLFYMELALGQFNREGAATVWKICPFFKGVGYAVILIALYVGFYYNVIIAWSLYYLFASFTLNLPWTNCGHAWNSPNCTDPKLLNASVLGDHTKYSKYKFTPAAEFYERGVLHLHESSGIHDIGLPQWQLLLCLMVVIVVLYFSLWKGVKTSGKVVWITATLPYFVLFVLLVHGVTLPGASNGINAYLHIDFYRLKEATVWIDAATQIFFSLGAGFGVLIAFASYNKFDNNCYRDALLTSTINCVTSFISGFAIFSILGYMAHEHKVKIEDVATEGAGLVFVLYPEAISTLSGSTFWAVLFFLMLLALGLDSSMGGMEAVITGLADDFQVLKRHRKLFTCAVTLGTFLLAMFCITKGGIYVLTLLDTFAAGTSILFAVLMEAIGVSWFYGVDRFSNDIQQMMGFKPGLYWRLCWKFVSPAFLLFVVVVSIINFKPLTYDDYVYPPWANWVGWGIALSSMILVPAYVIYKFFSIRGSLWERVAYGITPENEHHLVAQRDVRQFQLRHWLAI
Method in brief: as §1

[5] = 1 μM test substance, inhibition of specific [3H]-naloxone binding
[6] = read-out: NA reuptake, % inhibition [10 μM]
[7] = read-out: Na reuptake, % inhibition [10 μM]

| Compound | melting point [°C] | % maximum possible antinociceptive effect at 10 mg/kg ([1]; read-out: Activity % MPE) [%] | inhibition at 1 µM [2, 5] [%] | Ki [2] [nM] | inhibition at 10 µM [3] [%] | inhibition at 10 µM [4, 6] [%] | % maximum possible antinociceptive effect at 1 mg/kg ([1]; dose 1 mg/kg (i.v.), read-out: Activity % MPE) [%] | inhibition at 1 µM [2] [%] | inhibition at 10 µM [4, 7] [%] | Ki [3] [nM] | Ki [4] [nM] | ED50 ([1]; head prints (4.64-21.5)) [mg/kg] | % maximum possible antinociceptive effect at 21.5 mg/kg ([1]; dose 21.5 mg/kg (i.v.), read-out: Activity % MPE) [%] |
| --- | --- | --- | --- | --- | --- | --- | --- | --- | --- | --- | --- | --- | --- |
| CN(C)C(c1cccs1)C1CCC(=NO)CC1 (centres unmarked) | 118 to 121 | – | – | – | – | – | – | – | – | – | – | – | – |
| CN(C)C(c1ccccc1)C1CCC(NCCCCc2ccccc2)CC1 (centres unmarked) [compound 87, 4-((dimethylamino)(phenyl)methyl)-N-(4-phenylbutyl)cyclohexanamine hydrochloride] | – | 39 | 85 | 3.7 | 95 | 106 | – | – | – | – | – | – | – |
| CC(=O)N(CCCc1ccccc1)C1CCC(C(c2ccccc2)N(C)C)CC1 (centres unmarked) [compound 95, N-(4-((dimethylamino)(phenyl)methyl)cyclohexyl)-N-(3-phenylpropyl)acetamide hydrochloride] | – | – | – | 2.5 | 66 | – | 100 | 95 | 80 | – | – | – | – |
| CN(C)C(c1ccccc1)C1CCC(O)(Cc2ccc(F)cc2)CC1 (centres unmarked) [compound 148, 4-((dimethylamino)(phenyl)methyl)-1-(4-fluorobenzyl)cyclohexanol hydrochloride] | – | 40 | 91 | – | 90 | 97 | – | – | – | 370 | – | – | – |
| CN(C)C(c1ccccc1)C1CCC(NC(=O)NC2CCCCC2)CC1 (centres unmarked) [compound 80, 1-cyclohexyl-3-(4-((dimethylamino)(phenyl)methyl)cyclohexyl)urea] | – | 59 | 95 | 20 | 97 | 97 | – | – | – | 250 | 490 | – | – |
| CN(C)C(c1ccccc1)C1CCC(NC(=O)Nc2ccccc2)CC1.Cl (centres unmarked) [compound 78, 1-(4-((dimethylamino)(phenyl)methyl)cyclohexyl)-3-phenylurea hydrochloride] | – | – | 91 | 54 | 87 | 98 | – | – | – | 160 | 290 | 8.94 | – |
| CCCC(=O)N(Cc1ccccc1)C1CCC(C(c2ccccc2)N(C)C)CC1 (centres unmarked) [compound 102, N-benzyl-N-(4-((dimethylamino)(phenyl)methyl)cyclohexyl)butyramide hydrochloride] | – | 82 | – | 1.5 | 85 | – | – | 94 | 92 | 450 | 130 | – | – |
| CN(C)C(c1ccccc1)C1CCC(NCc2ccccc2)CC1 (centres unmarked) [compound 86, N-benzyl-4-((dimethylamino)(phenyl)methyl)cyclohexanamine hydrochloride] | – | – | 98 | 3.8 | 88 | 95 | – | – | – | – | – | – | 100 |
| CN(C)C(c1ccccc1)C1CCC(NC(=O)NCc2ccccc2)CC1 (centres unmarked) [compound 79, 1-benzyl-3-(4-((dimethylamino)(phenyl)methyl)cyclohexyl)urea] | – | 76 | 103 | 8.3 | 97 | 96 | – | – | – | 91 | 120 | – | – |
| CN(C)C(c1ccccc1)C1CCC(=NO)CC1 (centres unmarked) | 110 to 115 | – | – | – | – | – | – | – | – | – | – | – | – |
